Results on 20 compounds are retold here after publication PMC12704249, “New Mannich-type arylidenerhodanines as potent inhibitors of AChE and BChE: synthesis, biological evaluation, cytotoxicity and molecular modeling” (RSC Advances, 2025).

Like-named read-outs stand apart in the source and are kept apart here. A value given as a limit tells only on which side of the number the result lay.

As usually defined, the Ki is the equilibrium dissociation constant of an inhibitor or competing ligand from its target. The low end stands for tighter binding, the high end for weaker binding. For orientation: IC50 means the concentration that inhibits the measured activity by half.

In assay [1] the target is T1, AChE derived from Electrophorus electricus (Electrophorus electricus, UniProt O42275).
T1 construct: purchased Sigma-Aldrich (St. Louis, MO, USA)
T1 sequence (O42275 24-633): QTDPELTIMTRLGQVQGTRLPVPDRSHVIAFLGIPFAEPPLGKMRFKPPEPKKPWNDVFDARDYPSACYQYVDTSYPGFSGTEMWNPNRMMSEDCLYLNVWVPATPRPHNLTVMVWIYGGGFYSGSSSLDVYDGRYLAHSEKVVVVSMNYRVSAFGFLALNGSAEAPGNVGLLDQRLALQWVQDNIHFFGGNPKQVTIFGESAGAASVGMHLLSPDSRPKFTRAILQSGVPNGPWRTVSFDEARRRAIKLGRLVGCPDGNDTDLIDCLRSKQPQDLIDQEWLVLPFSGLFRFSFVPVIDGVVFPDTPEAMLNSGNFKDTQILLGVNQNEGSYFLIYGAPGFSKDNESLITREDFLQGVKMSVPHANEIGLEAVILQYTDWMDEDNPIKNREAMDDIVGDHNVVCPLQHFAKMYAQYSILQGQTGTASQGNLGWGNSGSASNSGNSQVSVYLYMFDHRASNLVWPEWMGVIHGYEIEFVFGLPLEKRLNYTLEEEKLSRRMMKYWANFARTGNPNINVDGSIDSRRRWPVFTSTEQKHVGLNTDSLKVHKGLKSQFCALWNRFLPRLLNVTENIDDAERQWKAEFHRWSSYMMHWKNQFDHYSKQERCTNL
Put plainly: AChE inhibition assay (modified Ellman's colorimetric method, Lineweaver–Burk Ki). Format: biochemical, Electrophorus electricus (electric eel). As to conditions: for Ki: 0.1 M Tris–HCl pH 8.0, substrate acetylthiocholine chloride; for Selectivity (BChE/AChE): ratio of BChE Ki to AChE Ki. An excerpt: Enzyme kinetic parameters were derived by measuring initial velocities at varying substrate concentrations both in the presence and absence of inhibitors. The Ki values were obtained through Lineweaver–Burk double-reciprocal plots, where 1/V was plotted against 1/[S], allowing for graphical estimation based on the shift in intercepts.[47,48]
(Ellman's reagent forms a yellow product with free thiols.)

For assay [2], the target named is T2, BChE isolated from equine serum (Equus caballus, UniProt P81908).
T2 construct: BChE isolated from equine serum (≥10 U per mg protein); purchased Sigma-Aldrich (St. Louis, MO, USA); host or cells: equine serum
T2 sequence (P81908 whole entry): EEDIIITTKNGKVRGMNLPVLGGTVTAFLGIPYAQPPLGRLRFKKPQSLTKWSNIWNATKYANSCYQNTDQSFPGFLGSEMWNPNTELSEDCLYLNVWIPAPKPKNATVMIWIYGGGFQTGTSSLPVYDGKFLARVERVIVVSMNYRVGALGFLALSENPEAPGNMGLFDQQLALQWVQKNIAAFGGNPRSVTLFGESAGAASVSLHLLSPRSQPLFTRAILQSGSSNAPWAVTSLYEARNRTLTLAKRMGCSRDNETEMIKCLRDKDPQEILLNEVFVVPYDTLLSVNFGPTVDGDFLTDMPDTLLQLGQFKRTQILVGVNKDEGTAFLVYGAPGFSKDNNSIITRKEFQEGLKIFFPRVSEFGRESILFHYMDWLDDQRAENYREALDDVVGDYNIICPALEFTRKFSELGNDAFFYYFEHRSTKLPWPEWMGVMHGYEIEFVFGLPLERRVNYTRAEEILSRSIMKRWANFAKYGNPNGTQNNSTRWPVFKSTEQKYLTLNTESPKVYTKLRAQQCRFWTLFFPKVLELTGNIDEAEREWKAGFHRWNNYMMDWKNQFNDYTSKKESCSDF
Kind of assay: BChE inhibition assay (modified Ellman's colorimetric method, Lineweaver–Burk Ki). The class given is biochemical. The settings on record: for Ki: 0.1 M Tris–HCl pH 8.0, substrate butyrylthiocholine iodide; for BChE Ki, fold more inhibitory than donepezil: relative to donepezil Ki; for BChE Ki, fold more inhibitory than tacrine: relative to tacrine Ki. The procedure: AChE derived from Electrophorus electricus (electric eel; specific activity: 200–1000 U per mg protein) and BChE isolated from equine serum (≥10 U per mg protein) were obtained from Sigma-Aldrich (St. Louis, MO, USA). Acetylthiocholine chloride (ATChCl) and butyrylthiocholine iodide (BTChI) were utilized as the respective substrates for AChE and BChE assays. All reagent solutions were freshly prepared in 0.1 M Tris–HCl buffer at pH 8.0. The enzymatic activities were assessed spectrophotometrically following a modified protocol based on Ellman's colorimetric method.[46] […] To determine the inhibition constant (Ki), a range of inhibitor concentrations was tested under steady-state conditions. Enzyme kinetic parameters were derived by measuring initial velocities at varying substrate concentrations both in the presence and absence of inhibitors. The Ki values were obtained through Lineweaver–Burk double-reciprocal plots, where 1/V was plotted against 1/[S], allowing for graphical estimation based on the shift in intercepts.[47,48]

Another assay relates to AChE. The settings on record: in Fig. 1, cited from earlier work.
In the next assay the test system is BChE. As to conditions: in Fig. 1, cited from earlier work.
Another assay relates to HUVEC cell line. Kind of assay: MTT cell viability assay on HUVEC. Format: cell-based, human. The method, then:
The cell line was cultured in DMEM-F12 medium (Gibco, MD, USA) supplemented with 10% fetal bovine serum (FBS) (Gibco, MD, USA) and 1% penicillin/streptomycin (Gibco, MD, USA) under a 5% CO2 humidified atmosphere at 37 °C.
The MTT proliferation test was conducted to determine the impact of the compounds on cell viability in the HUVEC cell line. The cells were seeded in 96-well plates (1 × 10^4 cells per well) and subsequently allowed to grow for 24 hours. […] Following the treatment duration, MTT solution was added at a final concentration of 0.1 mg mL^−1, and the cells were incubated for 4 hours at 37 °C. Then, the supernatant was discarded, DMSO was added to allow the formazan crystals to dissolve, and the plates were incubated in the dark at room temperature for 30 minutes. The absorbance at 570 nm was determined using a microplate reader (BioTek Instruments, Inc., USA). All cytotoxicity assays were done in three times (three independent experiments). IC50 values are given as mean ± standard deviation (SD). […] The error bars in all the figures show the experimental SD.
Background: Formazan colour is commonly taken as a measure of viable cells.

Setting [3] is: Homo sapiens, HUVEC, 24 h, MTT, 24 hours treatment, mean ± SD, n = 3, read-out: HUVEC IC50.

`C=CCN1C(=O)/C(=C/c2cc(CN3CCCC(C)C3)c(O)c(OC)c2)SC1=S` (stereo not shown) [Compound 5, (Z)-3-Allyl-5-{4-hydroxy-3-methoxy-5-[(3-methylpiperidin-1-yl)methyl]benzylidene}-2-thioxothiazolidin-4-one]: the Ki in assay [1] (Lineweaver–Burk plots) stood at 95.3 ± 11.2 nM; in assay [2] (Lineweaver–Burk plots), 88.7 ± 15.5 nM. Further, in assay [1], the “Selectivity (BChE/AChE)” value came to 0.93.

On to `C=CCN1C(=O)/C(=C/c2cc(CN3CCOCC3)c(O)c(CN3CCOCC3)c2)SC1=S` [Compound 13, (Z)-3-Allyl-5-[4-hydroxy-3,5-bis(morpholinomethyl)benzylidene]-2-thioxothiazolidin-4-one], for which the inhibition constant Ki amounted to 26.5 ± 9.21 nM in assay [1] (Lineweaver–Burk plots) and 112 ± 23.5 nM in assay [2] (Lineweaver–Burk plots).

For the compound `C=CCN1C(=O)/C(=C/c2cc(CN3CCOCC3)c(O)c(OCC)c2)SC1=S` [Compound 8, (Z)-3-Allyl-5-[4-hydroxy-3-ethoxy-5-(morpholinomethyl)benzylidene]-2-thioxothiazolidin-4-one], the Ki in assay [1] (Lineweaver–Burk plots) amounted to 85.1 ± 8.45 nM; in assay [2] (Lineweaver–Burk plots), 121 ± 12.7 nM. Further, the “Selectivity (BChE/AChE)” value in assay [1] was 1.42.

Regarding `O=C(O)c1ccc(/C=N/n2c(CN3CCN(c4ncccn4)CC3)nc3ccccc3c2=O)c(C(=O)O)c1` [IV], the IC50 in the assay on AChE was 9990 nM; with BChE it was 8650 nM.

In the case of `C=CCN1C(=O)/C(=C/c2cc(CN3CCc4ccccc4C3)c(O)c(OC)c2)SC1=S` [Compound 6, (Z)-3-Allyl-5-{3-[(3,4-dihydroisoquinolin-2(1H)-yl)methyl]-4-hydroxy-5-methoxybenzylidene}-2-thioxothiazolidin-4-one], the Ki in assay [1] (Lineweaver–Burk plots) is 13.6 ± 1.43 nM. Also, in assay [1], the “Selectivity (BChE/AChE)” value turned out to be 0.77. In assay [2] (Lineweaver–Burk plots), the “form of inhibition of BChE” value is listed as “competitive” and the inhibitory constant (Ki) is 10.4 ± 1.33 nM. Also, in assay [2], the “BChE Ki, fold more inhibitory than donepezil” value worked out at 5.98 fold and the “BChE Ki, fold more inhibitory than tacrine” value worked out at 16.24 fold. In addition, the IC50 in the assay with HUVEC cell line (Homo sapiens, HUVEC, 24 h, read-out: HUVEC IC50, MTT, 24 hours treatment, mean ± SD, n = 3) stood at 79100 nM. Further, the IC50 with HUVEC cell line (MTT, 24 hours treatment, mean ± SD, n = 3, read-out: HUVEC IC50) worked out at 79710 ± 520 nM.

On to `C=CCN1C(=O)/C(=C/c2cc(CN3CCN(C)CC3)c(O)c(OC)c2)SC1=S` [Compound 2, (Z)-3-Allyl-5-{4-hydroxy-3-methoxy-5-[(4-methylpiperazin-1-yl)methyl]benzylidene}-2-thioxothiazolidin-4-one], for which the inhibitory constant (Ki) in assay [1] (Lineweaver–Burk plots) was 46 ± 5.21 nM; in assay [2] (Lineweaver–Burk plots), 50.9 ± 10.4 nM. For the same compound, in assay [1], the “Selectivity (BChE/AChE)” value was found to be 1.11.

For the compound `O=C(CN1C(=O)CSC1=S)Nc1ccc([N+](=O)[O-])cc1` [VI], the IC50 with AChE (rhodanine derivatives) is 30800 nM; in the assay on BChE (rhodanine derivatives), 7900 nM.

With `CN(C)c1ccc(/C=C2\SC(=S)N(CC(=O)N3CCOCC3)C2=O)cc1` [VII], in the assay with AChE (rhodanine derivatives), the IC50 was 52300 nM.

In the case of `c1ccc2cc(-c3nc4ccccn4c3CN3CCOCC3)ccc2c1` [II], the IC50 is 12.6 nM in the assay on AChE and 25.5 nM in the assay on BChE.

`C=CCN1C(=O)/C(=C/c2cc(CN3CCN(c4ccccc4)CC3)c(O)c(OCC)c2)SC1=S` [Compound 10, (Z)-3-Allyl-5-{4-hydroxy-3-ethoxy-5-[(4-phenylpiperazin-1-yl)methyl]benzylidene}-2-thioxothiazolidin-4-one]: the inhibitory constant (Ki) came to 18.6 ± 2.05 nM in assay [1] (Lineweaver–Burk plots) and 21.6 ± 5.23 nM in assay [2] (Lineweaver–Burk plots). Moreover, the “Selectivity (BChE/AChE)” value in assay [1] was determined as 1.16. The IC50 in the assay on HUVEC cell line (setting [3]) came to 47400 ± 670 nM.

`C=CCN1C(=O)/C(=C/c2cc(CN3CCc4ccccc4C3)c(O)c(OCC)c2)SC1=S` [Compound 11, (Z)-3-Allyl-5-{3-[(3,4-dihydroisoquinolin-2(1H)-yl)methyl]-4-hydroxy-5-ethoxybenzylidene}-2-thioxothiazolidin-4-one]: in assay [1] (Lineweaver–Burk plots), the “form of inhibition of AChE” value is given as “competitive” and the inhibition constant (Ki) was 12.7 ± 1.96 nM. The Ki in assay [2] (Lineweaver–Burk plots) is 25.1 ± 6.41 nM. For the same compound, in assay [2], the “BChE Ki, fold more inhibitory than donepezil” value is reported as > 2.49 fold and the “BChE Ki, fold more inhibitory than tacrine” value is “over 6.75 fold”. For the same compound, in the assay on HUVEC cell line (setting [3]), the IC50 worked out at 69140 ± 590 nM.

On to `C=CCN1C(=O)/C(=C/c2cc(CN3CCOCC3)c(O)c(OC)c2)SC1=S` [Compound 1, (Z)-3-Allyl-5-[4-hydroxy-3-methoxy-5-(morpholinomethyl)benzylidene]-2-thioxothiazolidin-4-one], for which the Ki in assay [1] (Lineweaver–Burk plots) came to 57.6 ± 11.6 nM; in assay [2] (Lineweaver–Burk plots) it was 53.6 ± 8.87 nM. In addition, the “Selectivity (BChE/AChE)” value in assay [1] turned out to be 0.93. For the same compound, the “BChE Ki, fold more inhibitory than tacrine” value in assay [2] was “more than 3.16 fold”.

On to `C=CCN1C(=O)/C(=C/c2cc(CN3CCN(c4ccccc4)CC3)c(O)c(OC)c2)SC1=S` [Compound 3, (Z)-3-Allyl-5-{4-hydroxy-3-methoxy-5-[(4-phenylpiperazin-1-yl)methyl]benzylidene}-2-thioxothiazolidin-4-one], for which the figures for the Ki in assay [1] (Lineweaver–Burk plots) and in assay [2] (Lineweaver–Burk plots) were 62 ± 13.6 nM and 67.7 ± 11.4 nM, respectively. In addition, the “Selectivity (BChE/AChE)” value in assay [1] was found to be 1.09.

With `O=C(c1ccc2nc(-c3ccc[nH]3)oc2c1)N1CCOCC1` [I], the IC50 with AChE is 57.8 nM; in the assay on BChE, 99 nM.

In the case of `COc1cc(/C=N\NC(=O)c2ccncc2)cc(CN2CCN(c3ccccc3)CC2)c1O` [V], the IC50 with AChE was 230 nM.

Take `C=CCN1C(=O)/C(=C/c2cc(CN3CCN(c4ncccn4)CC3)c(O)c(OC)c2)SC1=S` [Compound 7, (Z)-3-Allyl-5-(4-hydroxy-3-methoxy-5-{[4-(pyrimidin-2-yl)piperazin-1-yl]methyl}benzylidene)-2-thioxothiazolidin-4-one]: the inhibition constant (Ki) amounted to 25.4 ± 9.45 nM in assay [1] (Lineweaver–Burk plots) and 29 ± 7.54 nM in assay [2] (Lineweaver–Burk plots). For the same compound, the “Selectivity (BChE/AChE)” value in assay [1] is recorded as 1.14. In assay [2], the “BChE Ki, fold more inhibitory than tacrine” value was determined as 5.85 fold. The 50% inhibitory concentration (IC50) in the assay with HUVEC cell line (setting [3]) was 43300 ± 470 nM.

For the compound `C=CCN1C(=O)/C(=C/c2cc(Br)c(O)c(CN3CCOCC3)c2)SC1=S` [Compound 12, (Z)-3-Allyl-5-[3-bromo-4-hydroxy-5-(morpholinomethyl)benzylidene]-2-thioxothiazolidin-4-one], the figures for the Ki in assay [1] (Lineweaver–Burk plots) and in assay [2] (Lineweaver–Burk plots) were 43 ± 8.77 nM and 97.2 ± 17.9 nM, respectively.

For `C=CCN1C(=O)/C(=C/c2cc(CN3CCN(C(=O)OCC)CC3)c(O)c(OCC)c2)SC1=S` [Compound 9, (Z)-3-Allyl-5-{4-hydroxy-3-ethoxy-5-[(4-ethoxycarbonylpiperazin-1-yl)methyl]benzylidene}-2-thioxothiazolidin-4-one], the Ki was found to be 31.5 ± 5.15 nM in assay [1] (Lineweaver–Burk plots) and 40.5 ± 6.63 nM in assay [2] (Lineweaver–Burk plots). The “Selectivity (BChE/AChE)” value in assay [1] is 1.29.

On to `C=CCN1C(=O)/C(=C/c2cc(CN3CCN(C(=O)OCC)CC3)c(O)c(OC)c2)SC1=S` [Compound 4, (Z)-3-Allyl-5-{4-hydroxy-3-methoxy-5-[(4-ethoxycarbonylpiperazin-1-yl)methyl]benzylidene}-2-thioxothiazolidin-4-one], for which the inhibitory constant (Ki) came out at 28.7 ± 6.12 nM in assay [1] (Lineweaver–Burk plots) and 33 ± 9.21 nM in assay [2] (Lineweaver–Burk plots). Besides, the “Selectivity (BChE/AChE)” value in assay [1] was 1.15. Besides, in the assay with HUVEC cell line (setting [3]), the IC50 is 73130 ± 500 nM.

As for `O=C(CCN1CCN(Cc2ccc(F)cc2)CC1)n1c2ccccc2c2ccccc21` [III], in the assay on AChE, the IC50 is 5700 nM.
